Read-outs that look alike come from different tables or passages of the source.
Experiments:
Bcl-2 = Bcl-2 (Homo sapiens, UniProt P10415); experiment: Bcl-2 binding affinity analysis (fluorescence polarization binding assay)
Summary of the method: (§1)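 Quantitative binding by polarized-fluorescence detection; in vitro, no cells involved.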

Bcl-xL = Bcl-xL (Homo sapiens, UniProt Q07817); experiment: Bcl-xL binding affinity analysis (fluorescence polarization binding assay); set-up: scale not given here
Summary of the method: as §1

[1] = tested on: RL Human Follicular Lymphoma Cell Line; experiment: Alamar blue cytotoxicity assay in RL cells; format: cell-based; details: 72 h incubation, read-out: Bcl RL Alamar Blue IC50
Summary of the method: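 Compounds tested at 29 uM to 0.013 uM final (0.3% DMSO) on 30,000 RL cells per well. After 72 h at 37 C, 5% CO2, viability read with Alamar blue.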

[2] = tested on: Human Pancreatic Cancer Cell Line Panc1; experiment: Cell death assay (propidium iodide/Hoechst) in Panc1 cells with or without camptothecin; format: cell-based; details: 72 hours, % cell death by propidium iodide/Hoechst
Summary of the method: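 Panc1 cells, 10,000/well, exposed 72 h at 37 C to compound (29 uM to 0.13 uM, 0.3% DMSO) with or without 3 uM camptothecin. Propidium iodide and Hoechst staining imaged by fluorescence microscopy; % cell death = PI-stained/Hoechst-stained cells × 100.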

[3] = Homo sapiens, PANC-1, without camptothecin, read-out: Panc1 − Cpt IC50
[4] = with 3 uM Camptothecin, read-out: Panc1 + Cpt IC50

Bcl-xL, sequence (Q07817 whole entry): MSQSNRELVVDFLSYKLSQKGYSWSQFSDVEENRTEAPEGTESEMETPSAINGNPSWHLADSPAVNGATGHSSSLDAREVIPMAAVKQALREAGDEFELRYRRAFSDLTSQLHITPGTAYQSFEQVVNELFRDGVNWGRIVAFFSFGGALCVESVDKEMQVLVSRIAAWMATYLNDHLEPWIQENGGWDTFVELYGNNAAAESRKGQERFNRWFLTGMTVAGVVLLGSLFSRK
Bcl-2, sequence (P10415 whole entry): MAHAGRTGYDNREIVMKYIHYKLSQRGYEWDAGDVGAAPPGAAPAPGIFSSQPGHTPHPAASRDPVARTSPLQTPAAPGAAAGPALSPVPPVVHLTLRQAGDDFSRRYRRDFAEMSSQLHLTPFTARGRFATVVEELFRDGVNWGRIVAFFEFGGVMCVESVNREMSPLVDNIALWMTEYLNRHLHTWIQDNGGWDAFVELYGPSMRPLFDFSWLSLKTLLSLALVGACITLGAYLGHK

Row | SMILES | Ki (Bcl-2) | Bcl-XL binding affinity Ki (Bcl-xL) | IC50 ([1]; Homo sapiens) | IC50 [2, 3] | IC50 [2, 4] | IC50 ([2]; without camptothecin, read-out: Panc1 − Cpt IC50) | IC50 [1]
1 | COc1c(CN2O[C@@H](CO)[C@@H]([C@H](C)O)[C@H]2C(=O)N[C@H]2C[C@H]3C[C@@H]([C@@H]2C)C3(C)C)cccc1-c1cccc(C(=O)N[C@H](Cc2ccccc2)CN(C)C)c1 [Compound 486] | < 800 nM | ♯ | 2000 to 5000 nM | > 2500 nM | > 2500 nM |  | 
2 | CC(O)C1C(CO)ON(Cc2cccc(CN(CCN(C)C)CC3CCCC3)c2)C1C(=O)NC1CC2CC(C1C)C2(C)C (stereo not shown) [Compound 363] | < 800 nM | ♯ | > 5000 nM | > 2500 nM | > 2500 nM |  | 
3 | CC(O)C1C(CO)ON(Cc2cccc(CNC(CC3CCCCCC3)CN(C)C)c2)C1C(=O)NC1CC2CC(C1C)C2(C)C (stereo not shown) [Compound 472] | < 800 nM | ♯ | 2000 to 5000 nM | > 2500 nM | > 2500 nM |  | 
4 | CC(O)C1C(CO)ON(Cc2cccc(CN(CCN(C)C)Cc3ccoc3)c2)C1C(=O)NC1CC2CC(C1C)C2(C)C (stereo not shown) [Compound 392] | < 800 nM | ♯ | > 5000 nM | > 2500 nM | > 2500 nM |  | 
5 | CC(C)CC(CN(C)C)N(Cc1ccccc1)Cc1cccc(CN2OC(CO)C(C(C)O)C2C(=O)NC2CC3CC(C2C)C3(C)C)c1 (stereo not shown) [Compound 311] | < 800 nM | ♯ |  | > 2500 nM | 1800 to 2500 nM |  | 2000 to 5000 nM
6 | CC(O)C1C(CO)ON(Cc2cccc(CN(CCN(C)C)Cc3nccs3)c2)C1C(=O)NC1CC2CC(C1C)C2(C)C (stereo not shown) [Compound 395] | < 800 nM | ♯ | > 5000 nM | > 2500 nM | > 2500 nM |  | 
7 | Cc1cccc(C)c1CN(Cc1cccc(CN2OC(CO)C(C(C)O)C2C(=O)NC2CC3CC(C2C)C3(C)C)c1)C(CC(C)C)CN(C)C (stereo not shown) [Compound 325] | < 800 nM | ♯ | < 2000 nM | < 1300 nM | < 1300 nM |  | 
8 | CC(O)C1C(CO)ON(Cc2cccc(CN(Cc3ccccc3)C(CN(C)C)CC(C)(C)C)c2)C1C(=O)NC1CC2CC(C1C)C2(C)C (stereo not shown) [Compound 414] | < 800 nM | ♯ | 2000 to 5000 nM | > 2500 nM | 1800 to 2500 nM |  | 
9 | COc1c(CN2O[C@@H](CO)[C@@H]([C@H](C)O)[C@H]2C(=O)N[C@H]2C[C@H]3C[C@@H]([C@@H]2C)C3(C)C)cccc1-c1cccc(C(=O)N[C@@H](CN(C)C)C(C)C)c1 [Compound 484] | < 800 nM | ♯ | 2000 to 5000 nM | > 2500 nM | > 2500 nM |  | 
10 | CC(C)CC(CN(C)C)N(Cc1cccc(CN2OC(CO)C(C(C)O)C2C(=O)NC2CC3CC(C2C)C3(C)C)c1)Cc1ccccc1OC(F)(F)F (stereo not shown) [Compound 320] | < 800 nM | ♯ | < 2000 nM | > 2500 nM | 1800 to 2500 nM |  | 
11 | CC(O)C1C(CO)ON(Cc2cccc(CN(Cc3ccccc3)C(C)CN(C)C)c2)C1C(=O)NC1CC2CC(C1C)C2(C)C (stereo not shown) [Compound 431] | < 800 nM | ♯ | > 5000 nM | > 2500 nM | > 2500 nM |  | 
12 | CC(C)CC(CN(C)C)N(Cc1cccc(CN2OC(CO)C(C(C)O)C2C(=O)NC2CC3CC(C2C)C3(C)C)c1)Cc1ccccc1[N+](=O)[O-] (stereo not shown) [Compound 316] | < 800 nM | ♯ | > 5000 nM | > 2500 nM | > 2500 nM |  | 
13 | CC(O)C1C(CO)ON(Cc2cccc(CN(CCN(C)C)Cc3cccnc3)c2)C1C(=O)NC1CC2CC(C1C)C2(C)C (stereo not shown) [Compound 393] | < 800 nM | ♯ | > 5000 nM | > 2500 nM | > 2500 nM |  | 
14 | COc1c(CN2O[C@@H](CO)[C@@H]([C@H](C)O)[C@H]2C(=O)N[C@H]2C[C@H]3C[C@@H]([C@@H]2C)C3(C)C)cccc1-c1cccc(C(=O)N[C@@H](CC2CCCCC2)CN(C)C)c1 [Compound 487] | < 800 nM | ♯ | 2000 to 5000 nM | > 2500 nM | > 2500 nM |  | 

Continued, in another order:

Row | Ki (Bcl-2) | Bcl-XL binding affinity Ki (Bcl-xL) | SMILES | IC50 ([1]; Homo sapiens) | IC50 [2, 3] | IC50 [2, 4] | IC50 ([2]; without camptothecin, read-out: Panc1 − Cpt IC50) | IC50 [1]
15 | < 800 nM | ♯ | CC(O)C1C(CO)ON(Cc2cccc(CN(CCN(C)C)Cc3cccc(Br)c3)c2)C1C(=O)NC1CC2CC(C1C)C2(C)C (stereo not shown) [Compound 366] | 2000 to 5000 nM | 1800 to 2500 nM | 1800 to 2500 nM |  | 
16 | < 800 nM | ♯ | CC(C)CC(CN(C)C)NC(=O)c1cccc(CN2OC(CO)C(C(C)O)C2C(=O)NC2CC3CC(C2C)C3(C)C)c1 (stereo not shown) [Compound 505] | > 5000 nM | > 2500 nM | > 2500 nM |  | 
17 | < 800 nM | ♯ | CCN1CCC[C@H]1CN(Cc1ccccc1)Cc1cccc(CN2O[C@@H](CO)C([C@H](C)O)[C@H]2C(=O)N[C@H]2C[C@H]3C[C@@H]([C@@H]2C)C3(C)C)c1 (stereo partly shown) [Compound 424] | < 2000 nM | > 2500 nM | 1800 to 2500 nM |  | 
18 | < 800 nM | ♯ | CCN(CC)CCN(Cc1ccccc1)Cc1cccc(CN2OC(CO)C(C(C)O)C2C(=O)NC2CC3CC(C2C)C3(C)C)c1 (stereo not shown) [Compound 428] | > 5000 nM | > 2500 nM | > 2500 nM |  | 
19 | < 800 nM | ♯ | CC(C)CC(CN(C)C)N(Cc1ccccc1)Cc1cccc(CN2OC(CO)C(C(C)O)C2C(=O)NC2CC3CC(C2C)C3(C)C)c1 (stereo not shown) [Compound 435] | 2000 to 5000 nM |  | > 2500 nM | > 2500 nM | 
20 | < 800 nM | ♯ | CC(O)C1C(CO)ON(Cc2cccc(CN(C)C(CC3CCCCC3)CN(C)C)c2)C1C(=O)NC1CC2CC(C1C)C2(C)C (stereo not shown) [Compound 442] | 2000 to 5000 nM | > 2500 nM | > 2500 nM |  | 
21 | < 800 nM | ♯ | COc1c(CN2O[C@@H](CO)[C@@H]([C@H](C)O)[C@H]2C(=O)N[C@H]2C[C@H]3C[C@@H]([C@@H]2C)C3(C)C)cccc1-c1cccc(C(=O)N[C@H](CC(C)C)CN2CCCCCC2)c1 [Compound 483] | 2000 to 5000 nM | > 2500 nM | 1800 to 2500 nM |  | 
22 | < 800 nM | ♯ | CC(C)CC(CN(C)C)N(Cc1cccc(CN2OC(CO)C(C(C)O)C2C(=O)NC2CC3CC(C2C)C3(C)C)c1)Cc1ccccc1Br (stereo not shown) [Compound 309] | < 2000 nM | > 2500 nM | 1300 to 1800 nM |  | 
23 | < 800 nM | ♯ | CC(O)C1C(CO)ON(Cc2cccc(CN(CC(=O)N(C)C)Cc3ccccc3)c2)C1C(=O)NC1CC2CC(C1C)C2(C)C (stereo not shown) [Compound 471] | > 5000 nM | > 2500 nM | > 2500 nM |  | 
24 | < 800 nM | ♯ | C[C@@H]1[C@@H](NC(=O)[C@@H]2C([C@H](C)O)[C@H](CO)ON2Cc2cccc(CN(CCN(C)C)Cc3ccccc3Cl)c2)C[C@H]2C[C@@H]1C2(C)C (stereo partly shown) [Compound 346] | 2000 to 5000 nM | > 2500 nM | > 2500 nM |  | 
25 | < 800 nM | ♯ | CC(O)C1C(CO)ON(Cc2cccc(C(=O)NC(CCc3ccccc3)CN(C)C)c2)C1C(=O)NC1CC2CC(C1C)C2(C)C (stereo not shown) [Compound 498] | > 5000 nM | > 2500 nM | > 2500 nM |  | 
26 | < 800 nM | ♯ | Cc1cccc(CN(CCN(C)C)Cc2cccc(CN3OC(CO)C(C(C)O)C3C(=O)NC3CC4CC(C3C)C4(C)C)c2)c1 (stereo not shown) [Compound 399] | 2000 to 5000 nM | > 2500 nM | > 2500 nM |  | 
27 | < 800 nM | ♯ | CC(O)C1C(CO)ON(Cc2cccc(CN(CCN(C)C)Cc3ccccc3C(F)(F)F)c2)C1C(=O)NC1CC2CC(C1C)C2(C)C (stereo not shown) [Compound 357] | 2000 to 5000 nM | > 2500 nM | > 2500 nM |  | 
28 | < 800 nM | ♯ | CC(C)CC(CN(C)C)N(Cc1cccc(CN2OC(CO)C(C(C)O)C2C(=O)NC2CC3CC(C2C)C3(C)C)c1)Cc1ccccc1C(F)(F)F (stereo not shown) [Compound 321] | < 2000 nM | < 1300 nM | < 1300 nM |  | 
29 | < 800 nM | ♯ | CC(O)C1C(CO)ON(Cc2cccc(CN(CCN(C)C)Cc3cccc(-c4ccccc4)c3)c2)C1C(=O)NC1CC2CC(C1C)C2(C)C (stereo not shown) [Compound 402] | < 2000 nM | > 2500 nM | > 2500 nM |  | 
30 | < 800 nM | ♯ | CC(O)C1C(CO)ON(Cc2cccc(CN(CCN(C)C)Cc3ccc4ccccc4c3)c2)C1C(=O)NC1CC2CC(C1C)C2(C)C (stereo not shown) [Compound 375] | > 5000 nM | > 2500 nM | > 2500 nM |  | 
31 | < 800 nM | ♯ | CC(O)C1C(CO)ON(Cc2cccc(CN(CCN(C)C)Cc3ccccn3)c2)C1C(=O)NC1CC2CC(C1C)C2(C)C (stereo not shown) [Compound 413] | > 5000 nM | > 2500 nM | > 2500 nM |  | 
32 | < 800 nM | ♯ | CC(C)CC(CN(C)C)N(Cc1cccc(CN2OC(CO)C(C(C)O)C2C(=O)NC2CC3CC(C2C)C3(C)C)c1)Cc1ccccc1F (stereo not shown) [Compound 312] | < 2000 nM | > 2500 nM | > 2500 nM |  | 

— US7851637B2, “Compounds and methods for inhibiting the interaction of BCL proteins with binding partners” (Infinity Pharmaceuticals, Inc., priority 2004, dated 2010)
